Source: publication PMC12091851, “Replacing a Cereblon Ligand by a DDB1 and CUL4 Associated Factor 11 (DCAF11) Recruiter Converts a Selective Histone Deacetylase 6 PROTAC into a Pan‐Degrader” (Chemmedchem, 2025)

System: acetylated α-tubulin and histone H3
Assay: Cellular target engagement, immunoblot of acetylated α-tubulin and histone H3 in MM.1S
Type: cell-based, human
Settings: MM.1S cells, 10 μM, 24 h; compared to 2 and A6
Description: Moreover, the capability to reduce the enzymatic activity of HDACs was confirmed by a cellular target engagement assay. MM.1S cells were treated with the PROTACs and the level of acetylated HDAC substrate proteins was subsequently determined. Class I HDACs deacetylate histone H3, and thus hyperacetylation of histone H3 indicates class I HDAC inhibition. Conversely, hyperacetylation of α‐tubulin serves a marker of HDAC6 inhibition. Both hit compounds are capable of inhibiting class I and HDAC6 in a cellular environment, confirming effective target engagement in MM.1S cells (Figure 5). With regards to the HDAC6 inhibition, the trend of the enzyme inhibition data was thus confirmed. […]
Samples of the aqueous solutions were taken after 0, 24, 48, and 72 h at room temperature and the amounts of the parental compound and potential fragments were monitored by HPLC gradient A (see 3.1 General Information). […]
Afterwards, proteins were transferred with the Trans -Blot Turbo Transfer System (Catalog# 1704150, Bio-Rad) to Immobilon-FL PVDF membranes (Catalog# IPFL00005, Mill ipore Merck, Burlington, MA, USA) at 1.0 A for 30 min and treated with 5% milk-powder solution for 1 h at room temperature under slight agitation. […] The ChemiDoc XRS+ System (Catalog# 1708265 , Bio-Rad) was used for detection and Image Lab Software 6.1 (Bio-Rad) for quantification. […]

O=C(CCCCCCNC(=O)c1ccc(NC(=O)CCCCCCCCCCCN(C(=O)CCl)C(C(=O)NCc2ccccc2)c2ccc(Cl)c(Cl)c2)cc1)NO (stereo not shown) [Compound 1j] was tested, and the “histone H3 hyperacetylation” value was “more pronounced”.
